From US20260315452A1, “PROTEASE INHIBITORS AND USES THEREOF” (priority 2023, published 2026)

These compounds were tested against SARS-CoV-2 3CLpro (Severe acute respiratory syndrome coronavirus 2, UniProt P0DTD1) (assay: biochemical). Details: inhibition of SARS-CoV-2 3CLpro; 15 nM 3CLpro, 25 μM fluorogenic substrate, 37° C.; read-out: Inhibitory Activity (IC50).
With `C[C@@H](NC(=O)c1cc(Br)cc([N+](=O)[O-])c1N[C@@H]1COCC[C@@H]1NC(=O)c1cncc2ccccc12)C(F)(F)F` [Compound 136, N-((3S, 4S)-3-((4-bromo-2-nitro-6-(((R)-1,1,1-trifluoropropan-2-yl)carbamoyl)phenyl)amino)tetrahydro-2H-pyran-4-yl)isoquinoline-4-carboxamide] the IC50 was 100 to 1000 nM.
For `O=C(NC1CC(F)(F)C1)c1cc(Br)cc([N+](=O)[O-])c1N[C@@H]1COC[C@@H]1NC(=O)c1cncc2ccccc12` [Compound 137, N-((3R,4S)-4-((4-bromo-2-((3,3-difluorocyclobutyl)carbamoyl)-6-nitrophenyl)amino)tetrahydrofuran-3-yl)isoquinoline-4-carboxamide], the IC50 was 1000 to 10000 nM.
Work on `CNC(=O)c1cc(Br)cc([N+](=O)[O-])c1N[C@@H]1CCC(C)(C)N(C(=O)c2cncc3ccccc23)C1` [Compound 138, (R)-5-bromo-2-((1-(isoquinoline-4-carbonyl)-6,6-dimethylpiperidin-3-yl)amino)-N-methyl-3-nitrobenzamide] yielded an IC50 of 100 to 1000 nM.
`CNC(=O)c1cc(Br)cc([N+](=O)[O-])c1N[C@H]1CN(C(c2cncc3ccccc23)C(F)(F)F)CCC1(F)F` (stereo partly drawn) [Compound 140, 5-bromo-2-(((35)-4,4-difluoro-1-(2,2,2-trifluoro-1-(isoquinolin-4-yl)ethyl)piperidin-3-yl)amino)-N-methyl-3-nitrobenzamide] showed an IC50 of no less than 10000 nM.
`CNC(=O)c1cc(Br)cc([N+](=O)[O-])c1N[C@H]1CN(C(=O)c2cncc3ccccc23)CC[C@H]1C` [Compound 141, 5-bromo-2-(((3R, 4R)-1-(isoquinoline-4-carbonyl)-4-methylpiperidin-3-yl)amino)-N-methyl-3-nitrobenzamide] showed an IC50 of 100 to 1000 nM.
With `O=C(NCC(F)(F)F)c1cc(Br)cc([N+](=O)[O-])c1N[C@H]1CN(C(=O)c2cncc3ccccc23)CCC1(F)F` [Compound 148, (S)-5-bromo-2-((4,4-difluoro-1-(isoquinoline-4-carbonyl)piperidin-3-yl)amino)-3-nitro-N-(2,2,2-trifluoroethyl) benzamide] the IC50 was less than 100 nM.
Work on `O=C(N[C@@H]1CCNC1)c1cc(Br)cc([N+](=O)[O-])c1N[C@H]1CN(C(=O)c2cncc3ccccc23)CC1(F)F` [Compound 150] yielded an IC50 of less than 100 nM.
Compound `CC1(NC(=O)c2cc(Cl)cc([N+](=O)[O-])c2N[C@H]2CN(C(=O)c3cncc4ccccc34)CCC2(F)F)CC1` [Compound 152, (S)-5-chloro-2-((4,4-difluoro-1-(isoquinoline-4-carbonyl)piperidin-3-yl)amino)-N-(1-methylcyclopropyl)-3-nitrobenzamide] has an IC50 of less than 100 nM.
Compound `O=C(O)c1cc(Br)cc([N+](=O)[O-])c1N[C@H]1CN(C(=O)c2cncc3ccccc23)CCC1(F)F` [Compound 153, (S)-5-bromo-2-((4,4-difluoro-1-(isoquinoline-4-carbonyl)piperidin-3-yl)amino)-3-nitrobenzoic acid] has an IC50 of 100 to 1000 nM.
Compound `O=C(N[C@@H]1CCNC1)c1cc(Br)cc(C(F)(F)F)c1N[C@H]1CN(C(=O)c2cncc3ccccc23)CCC1(F)F` [Compound 160, 5-bromo-2-[[(3S)-4,4-difluoro-1-(isoquinoline-4-carbonyl)-3-piperidyl]amino]-N-[(3R)-pyrrolidin-3-yl]-3-(trifluoromethyl)benzamide] has an IC50 of less than 100 nM.
For `CN(C)C(=O)c1cc(Br)cc([N+](=O)[O-])c1N[C@H]1CN(C(=O)c2cncc3ccccc23)CC1(F)F` [Compound 161, (S)-5-bromo-2-((4,4-difluoro-1-(isoquinoline-4-carbonyl)pyrrolidin-3-yl)amino)-N, N-dimethyl-3-nitrobenzamide], the IC50 was less than 100 nM.
`O=C(c1cc(Br)cc([N+](=O)[O-])c1N[C@H]1CN(C(=O)c2cncc3ccccc23)CC1(F)F)N1CC(F)(F)C1` [Compound 162, (S)-(5-bromo-2-((4,4-difluoro-1-(isoquinoline-4-carbonyl)pyrrolidin-3-yl)amino)-3-nitrophenyl)(3,3-difluoroazetidin-1-yl)methanone] gave an IC50 of less than 100 nM.
`O=C(N[C@@H]1CCOC1)c1cc(Br)cc([N+](=O)[O-])c1N[C@H]1CN(C(=O)c2cncc3ccccc23)CC1(F)F` [Compound 163, 5-bromo-2-(((S)-4,4-difluoro-1-(isoquinoline-4-carbonyl)pyrrolidin-3-yl)amino)-3-nitro-N-((R)-tetrahydrofuran-3-yl)benzamide] gave an IC50 of less than 100 nM.
`O=C(N[C@H]1CCOC1)c1cc(Br)cc(C(F)(F)F)c1N[C@H]1CN(C(=O)c2cncc3ccccc23)CCC1(F)F` [Compound 164, 5-bromo-2-(((S)-4,4-difluoro-1-(isoquinoline-4-carbonyl)piperidin-3-yl)amino)-N-((S)-tetrahydrofuran-3-yl)-3-(trifluoromethyl)benzamide] was tested, and the IC50 was less than 100 nM.
`O=C(N[C@H]1CCOC1)c1cc(Cl)cc(C(F)(F)F)c1N[C@H]1CN(C(=O)c2cncc3ccccc23)CCC1(F)F` [Compound 165, 5-chloro-2-(((S)-4,4-difluoro-1-(isoquinoline-4-carbonyl)piperidin-3-yl)amino)-N-((S)-tetrahydrofuran-3-yl)-3-(trifluoromethyl)benzamide] gave an IC50 of less than 100 nM.
With `CNC(=O)c1cc(Br)cc([N+](=O)[O-])c1N[C@H]1CN(C(=O)c2cncc3ccccc23)C[C@H]1F` [Compound 166, 5-bromo-2-[[(3S,4R)-4-fluoro-1-(isoquinoline-4-carbonyl)pyrrolidin-3-yl]amino]-N-methyl-3-nitro-benzamide] the IC50 was less than 100 nM.
Compound `CNC(=O)c1cc(Br)cc(C(F)(F)F)c1N[C@H]1CN(C(=O)c2cncc3cccnc23)CCC1(F)F` [Compound 167, (S)-5-bromo-2-((4,4-difluoro-1-(1,6-naphthyridine-8-carbonyl)piperidin-3-yl)amino)-N-methyl-3-(trifluoromethyl)benzamide] has an IC50 of less than 100 nM.
`CNC(=O)c1cc(Cl)cc([N+](=O)[O-])c1N[C@H]1CN(C(=O)c2cncc3cc(O)ccc23)CCC1(F)F` [Compound 168, (S)-5-chloro-2-((4,4-difluoro-1-(7-hydroxyisoquinoline-4-carbonyl)piperidin-3-yl)amino)-N-methyl-3-nitrobenzamide] gave an IC50 of less than 100 nM.
Compound `CNC(=O)c1cc(Cl)cc([N+](=O)[O-])c1N[C@H]1CN(C(=O)c2cncc(Cl)c2C)CCC1(F)F` [Compound 169, (S)-5-chloro-2-((1-(5-chloro-4-methylnicotinoyl)-4,4-difluoropiperidin-3-yl)amino)-N-methyl-3-nitrobenzamide] has an IC50 of less than 100 nM.
With `CNC(=O)c1cc(Cl)cc([N+](=O)[O-])c1N[C@H]1CN(C(=O)c2cncc3ccncc23)CC[C@@H]1F` [Compound 171, 5-chloro-2-(((3S, 4S)-4-fluoro-1-(2,6-naphthyridine-4 - carbonyl)piperidin-3-yl)amino)-N-methyl-3-nitrobenzamide] the IC50 was less than 100 nM.
`COC1CN(C(=O)c2cc(Br)cc(C(F)(F)F)c2N[C@H]2CN(C(=O)c3cncc4ccccc34)CCC2(F)F)C1` [Compound 172, (S)-(5-bromo-2-((4,4-difluoro-1-(isoquinoline-4-carbonyl)piperidin-3-yl)amino)-3-(trifluoromethyl)phenyl)(3-methoxyazetidin-1-yl)methanone] gave an IC50 of less than 100 nM.
`O=C(c1cc(Br)cc(C(F)(F)F)c1N[C@H]1CN(C(=O)c2cncc3ccccc23)CCC1(F)F)N1CC(O)C1` [Compound 173, (S)-(5-bromo-2-((4,4-difluoro-1-(isoquinoline-4-carbonyl)piperidin-3-yl)amino)-3-(trifluoromethyl)phenyl)(3-hydroxyazetidin-1-yl)methanone] was tested, and the IC50 was less than 100 nM.
Work on `CNC(=O)c1cc(Cl)cc([N+](=O)[O-])c1N[C@H]1CN(C(=O)c2cncc3cccc(O)c23)CCC1(F)F` [Compound 174, (S)-5-chloro-2-((4,4-difluoro-1-(5-hydroxyisoquinoline-4-carbonyl)piperidin-3-yl)amino)-N-methyl-3-nitrobenzamide] yielded an IC50 of less than 100 nM.
Compound `CNC(=O)c1cc(Cl)cc([N+](=O)[O-])c1N[C@H]1CN(C(=O)c2cncc3cnccc23)CCC1(F)F` [Compound 175, (S)-5-chloro-2-((4,4-difluoro-1-(2,7-naphthyridine-4-carbonyl)piperidin-3-yl)amino)-N-methyl-3-nitrobenzamide] has an IC50 of less than 100 nM.
For `CNC(=O)c1cc(Cl)cc([N+](=O)[O-])c1N[C@H]1CN(C(=O)c2cncc3ncccc23)CCC1(F)F` [Compound 176, (S)-5-chloro-2-((4,4-difluoro-1-(1,7-naphthyridine-5-carbonyl)piperidin-3-yl)amino)-N-methyl-3-nitrobenzamide], the IC50 was less than 100 nM.
Work on `CN(C)C(=O)c1cc(Cl)cc([N+](=O)[O-])c1N[C@H]1CN(C(=O)c2cncc3ccccc23)CC[C@@H]1F` [Compound 177] yielded an IC50 of less than 100 nM.
`CNC(=O)c1cc(Cl)cc([N+](=O)[O-])c1N[C@H]1CN(C(=O)c2cncc3ccn(C)c23)CC[C@@H]1F` [Compound 178, 5-chloro-2-(((3S, 4S)-4-fluoro-1-(1-methyl-1H-pyrrolo[3,2-c]pyridine-7-carbonyl)piperidin-3-yl)amino)-N-methyl-3-nitrobenzamide] was tested, and the IC50 was less than 100 nM.
With `CNC(=O)c1cc(Br)cc([N+](=O)[O-])c1O[C@@H]1CN(C(=O)c2cncc3ccccc23)CCC1(F)F` [Compound 179, (R)-5-bromo-2-((4,4-difluoro-1-(isoquinoline-4-carbonyl)piperidin-3-yl)oxy)-N-methyl-3-nitrobenzamide] the IC50 was 100 to 1000 nM.
With `CNC(=O)c1cc(Br)cc([N+](=O)[O-])c1O[C@H]1CN(C(=O)c2cncc3ccccc23)CCC1(F)F` [Compound 180, (S)-5-bromo-2-((4,4-difluoro-1-(isoquinoline-4-carbonyl)piperidin-3-yl)oxy)-N-methyl-3-nitrobenzamide] the IC50 was no less than 10000 nM.
`CNC(=O)c1cc(Br)cc(C(F)(F)F)c1N[C@H]1CN(C(=O)c2cncc3ccccc23)CC[C@H]1F` [Compound 181, 5-bromo-2-(((3S,4R)-4-fluoro-1-(isoquinoline-4-carbonyl)piperidin-3-yl)amino)-N-methyl-3-(trifluoromethyl)benzamide] was tested, and the IC50 was less than 100 nM.
